The numbers were not newly measured in article PMC10576142, “Intrinsic structural dynamics dictate enzymatic activity and inhibition” (Proceedings of the National Academy of Sciences of the …, 2023), which cites them from elsewhere.

This data set has as its system HDAC8. Also on record: method as in PMID 24079912.

For the compound `CC(/C=C/C(=O)NO)=C\[C@@H](C)C(=O)c1ccc(N(C)C)cc1` [TCSA, trichostatin A], the overall off-rate was 0.1 s⁻¹.
